Measured values: the supplement of paper PMC10307832

Key:
Experiment in all cases: relative viability (nuclei count vs DMSO), 5 days (fraction); higher = more cells survive
[1] = system: NCI-H2228
Procedure, shortened: (§1)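 Cells from lung cancer lines were seeded into 1536-well plates and, one day later, dosed by pin tool. Treatments were either a single drug or a fixed dose of an anchor drug with five library-drug doses (not always all listed) in √10 steps. After 5 days, nuclei were stained in a one-step fixation (final 0.05% Triton X-100, 1% formaldehyde, 1 ug/ml Hoechst) and counted on 4× images, and relative viability is the treated-to-vehicle nuclei ratio, as the median of duplicate plates.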

[2] = system: NCI-H358
Procedure, shortened: as §1

[3] = system: LK-2
Procedure, shortened: as §1

[4] = system: NCI-H1355
Procedure, shortened: as §1

[5] = system: NCI-H2087
Procedure, shortened: as §1

[6] = system: LCLC-97TM1
Procedure, shortened: as §1

[7] = system: NCI-H661
Procedure, shortened: as §1

[8] = system: NCI-H1395
Procedure, shortened: as §1

[9] = system: CAL-12T
Procedure, shortened: as §1

[10] = system: NCI-H322M
Procedure, shortened: as §1

[11] = system: SK-MES-1
Procedure, shortened: as §1

[12] = system: LC-2-ad
Procedure, shortened: as §1

[13] = system: NCI-H1666
Procedure, shortened: as §1

[14] = system: NCI-H838
Procedure, shortened: as §1

[15] = system: NCI-H1915
Procedure, shortened: as §1

[16] = system: NCI-H2085
Procedure, shortened: as §1

[17] = system: H3255
Procedure, shortened: as §1

[18] = system: NCI-H1792
Procedure, shortened: as §1

[19] = system: RERF-LC-KJ
Procedure, shortened: as §1

[20] = system: UMC-11
Procedure, shortened: as §1

[21] = system: NCI-H1651
Procedure, shortened: as §1

[22] = system: NCI-H1563
Procedure, shortened: as §1

[23] = system: PC-3 [JPC-3]
Procedure, shortened: as §1

[24] = system: A-427
Procedure, shortened: as §1

CCCCCCCCCCCC1=C(O)C(=O)C=C(O)C1=O [Embelin] + Nc1nc2[nH]cc(CCc3ccc(C(=O)N[C@@H](CCC(=O)O)C(=O)O)cc3)c2c(=O)[nH]1 [Pemetrexed] (partner 0.2 µM)
relative viability ([1]; first compound 0.08 µM): 0.329
relative viability ([1]; first compound 0.8 µM): 0.347
relative viability ([1]; first compound 2.53 µM): 0.345
relative viability ([1]; first compound 8 µM): 0.39
relative viability ([2]; first compound 0.08 µM): 0.217
relative viability ([2]; first compound 0.8 µM): 0.193
relative viability ([2]; first compound 2.53 µM): 0.178
relative viability ([2]; first compound 8 µM): 0.175
relative viability ([3]; first compound 0.08 µM): 0.335
relative viability ([3]; first compound 0.8 µM): 0.227
relative viability ([3]; first compound 2.53 µM): 0.385
relative viability ([3]; first compound 8 µM): 0.289
relative viability ([4]; first compound 0.08 µM): 1.06
relative viability ([4]; first compound 0.8 µM): 1.13
relative viability ([4]; first compound 2.53 µM): 1.12
relative viability ([4]; first compound 8 µM): 0.784
relative viability ([5]; first compound 0.08 µM): 0.745
relative viability ([5]; first compound 0.8 µM): 0.517
relative viability ([5]; first compound 2.53 µM): 0.748
relative viability ([5]; first compound 8 µM): 0.646
relative viability ([6]; first compound 0.08 µM): 0.17
relative viability ([6]; first compound 0.8 µM): 0.166
relative viability ([6]; first compound 2.53 µM): 0.163
relative viability ([6]; first compound 8 µM): 0.182
relative viability ([7]; first compound 0.08 µM): 0.953
relative viability ([7]; first compound 0.8 µM): 0.936
relative viability ([7]; first compound 2.53 µM): 0.886
relative viability ([7]; first compound 8 µM): 0.896
relative viability ([8]; first compound 0.08 µM): 0.828
relative viability ([8]; first compound 0.8 µM): 1.03
relative viability ([8]; first compound 2.53 µM): 0.856
relative viability ([8]; first compound 8 µM): 0.585
relative viability ([9]; first compound 0.08 µM): 1.11
relative viability ([9]; first compound 0.8 µM): 1.4
relative viability ([9]; first compound 2.53 µM): 1.1
relative viability ([9]; first compound 8 µM): 1.06
relative viability ([10]; first compound 0.08 µM): 0.598
relative viability ([10]; first compound 0.8 µM): 0.625
relative viability ([10]; first compound 2.53 µM): 0.646
relative viability ([10]; first compound 8 µM): 0.667
relative viability ([11]; first compound 0.08 µM): 1.01
relative viability ([11]; first compound 0.8 µM): 1.05
relative viability ([11]; first compound 2.53 µM): 0.937
relative viability ([11]; first compound 8 µM): 0.824
relative viability ([12]; first compound 0.08 µM): 0.274
relative viability ([12]; first compound 0.8 µM): 0.282
relative viability ([12]; first compound 2.53 µM): 0.257
relative viability ([12]; first compound 8 µM): 0.288
relative viability ([13]; first compound 0.08 µM): 0.922
relative viability ([13]; first compound 0.8 µM): 0.894
relative viability ([13]; first compound 2.53 µM): 0.849
relative viability ([13]; first compound 8 µM): 0.817
relative viability ([14]; first compound 0.08 µM): 0.271
relative viability ([14]; first compound 0.8 µM): 0.238
relative viability ([14]; first compound 2.53 µM): 0.252
relative viability ([14]; first compound 8 µM): 0.247
relative viability ([15]; first compound 0.08 µM): 0.518
relative viability ([15]; first compound 0.8 µM): 0.488
relative viability ([15]; first compound 2.53 µM): 0.558
relative viability ([15]; first compound 8 µM): 0.55
relative viability ([16]; first compound 0.08 µM): 0.854
relative viability ([16]; first compound 0.8 µM): 1.01
relative viability ([16]; first compound 2.53 µM): 0.87
relative viability ([16]; first compound 8 µM): 0.871
relative viability ([17]; first compound 0.08 µM): 0.566
relative viability ([17]; first compound 0.8 µM): 0.616
relative viability ([17]; first compound 2.53 µM): 0.597
relative viability ([17]; first compound 8 µM): 0.585
relative viability ([18]; first compound 0.08 µM): 0.815
relative viability ([18]; first compound 0.8 µM): 0.817
relative viability ([18]; first compound 2.53 µM): 1.06
relative viability ([18]; first compound 8 µM): 0.382
relative viability ([19]; first compound 0.08 µM): 0.502
relative viability ([19]; first compound 0.8 µM): 0.498
relative viability ([19]; first compound 2.53 µM): 0.504
relative viability ([19]; first compound 8 µM): 0.474
relative viability ([20]; first compound 0.08 µM): 0.812
relative viability ([20]; first compound 0.8 µM): 0.849
relative viability ([20]; first compound 2.53 µM): 0.928
relative viability ([20]; first compound 8 µM): 0.806
relative viability ([21]; first compound 0.08 µM): 0.58
relative viability ([21]; first compound 0.8 µM): 0.613
relative viability ([21]; first compound 2.53 µM): 0.656
relative viability ([21]; first compound 8 µM): 0.642
relative viability ([22]; first compound 0.08 µM): 0.742
relative viability ([22]; first compound 0.8 µM): 0.767
relative viability ([22]; first compound 2.53 µM): 0.693
relative viability ([22]; first compound 8 µM): 0.713
relative viability ([23]; first compound 0.08 µM): 1.04
relative viability ([23]; first compound 0.8 µM): 1.17
relative viability ([23]; first compound 2.53 µM): 1.07
relative viability ([23]; first compound 8 µM): 0.634
relative viability ([24]; first compound 0.08 µM): 0.993
relative viability ([24]; first compound 0.8 µM): 1.07
relative viability ([24]; first compound 2.53 µM): 0.963
relative viability ([24]; first compound 8 µM): 0.502
